Common to all, as to assay: Cell growth inhibition assay (alamar blue)
What all share (type): cell-based

In test [1] the test system is human osteosarcoma U2OS tumor cell line. Particulars: 72 h. Here is the method:
(§1) The compounds were screened in a growth inhibition assay at 20 μM over a 72 h period in a panel of cancer cell lines (lung-A549; pancreatic-Aspc1; colon-HT29; breast-MDAMB231; prostate-PC3; ovarian-SKOV3 and bone-U2OS) and the results are summarized in Table 2. […] This size effect was also observed with the urea compounds from the secondary amine (6j vs. 6l and 6k vs. 6m).
(§2) Cell Growth Inhibition Assay. Human lung A549, human pancreatic AsPC1, human colorectal HT-29, human breast MDA-MB-231, human prostate PC3, human ovarian SKOV3, and human osteosarcoma U2OS tumor cell lines were cultured in basal media containing 10% FBS and maintained in a 37° C. incubator with 5% CO2. All compounds were screened in 96 well microtiter plate format. In general, each cell line was plated at optimal assay density in 95 μl of propagation media in 96 well plates and incubated overnight. The next day, a standard alamar blue assay was performed (see below) on representative wells of each cell line for a Tz calculation. Subsequently, cells were treated in duplicate with a 5 μl volume of either vehicle only, positive controls etoposide and taxol, or test compounds at 20 μM (highest soluble compound concentration). The treated cells were incubated for 72 h and then assayed for growth by alamar blue assay. Briefly, 10 μl of reagent was added to each well and the plates returned to 37° C. After 3 h, fluorescence at 544ex/590em was measured using a SpectraMax M5 (Molecular Devices) plate reader. Growth is represented as a percentage of the control cells that were treated with vehicle only and % growth inhibition was determined using the NCI algorithm: Tz=number of untreated cells at zero time, C=Number of control cells at 72 h time, and T=number of compound treated cells at 72 h time; 100*([T−Tz]/[C−Tz]).

Test [2] has as its system human lung A549 tumor cell line. As to conditions: A549, 20 μM, 72 h. As for the experimental part:
as §1, §2

Test [3] concerns human breast MDA-MB-231 tumor cell line. As to conditions: MDA-MB-231, 20 μM, 72 h. As for the experimental part:
as §1, §2

The test system of test [4] is human colorectal HT-29 tumor cell line. Particulars: HT29, 20 μM, 72 h. Here is the method: as §1, §2
The subject of test [5] is human pancreatic AsPC1 tumor cell line. Particulars: AsPC1, 20 μM, 72 h. As for the experimental part:
as §1, §2

Test [6] concerns human prostate PC3 tumor cell line. Particulars: PC3, 20 μM, 72 h. As for the experimental part: as §1, §2
Test [7] relates to human ovarian SKOV3 tumor cell line. As to conditions: SKOV3, 20 μM, 72 h. As for the experimental part:
as §1, §2

Structures are written as SMILES.

The source of these data is US9353094B2, “Substituted quinoxalines as kinase inhibitors” (BOARD OF REGENTS OF THE UNIVERSITY OF NEBRASKA, priority 2010, dated 2016).

With `CC(=O)Nc1ccc2nc(-c3cccs3)c(-c3cccs3)nc2c1` [5c], the “% Growth inhibition at 20 μM” value in test [1], in test [2], in test [3], in test [4], in test [5] and in test [6] was “Inactive” each time. The “% Growth inhibition at 20 μM” value in test [7] is “Inactive”.

For `CC(=O)Nc1ccc2nc(-c3ccccc3)c(-c3ccccc3)nc2c1` [5d], the “% Growth inhibition at 20 μM” value in test [1], in test [2], in test [3], in test [4], in test [5] and in test [6] was “Inactive” throughout. The “% Growth inhibition at 20 μM” value in test [7] was “Inactive”.

Take `Cc1nc2ccc(NC(=O)Nc3ccccc3)cc2nc1C` [5e]: the “% Growth inhibition at 20 μM” value in test [1], in test [2], in test [3], in test [4], in test [5] and in test [6] was “Inactive” throughout. The “% Growth inhibition at 20 μM” value in test [7] is “Inactive”.

Take `O=C(Nc1ccccc1)Nc1ccc2nc(-c3cccs3)c(-c3cccs3)nc2c1` [5g]: the “% Growth inhibition at 20 μM” value in test [1], in test [2], in test [3], in test [4], in test [5] and in test [6] was “Inactive” each time. For the same compound, in test [7], the “% Growth inhibition at 20 μM” value is reported as “Inactive”.

Regarding `O=C(Nc1ccccc1)Nc1ccc2nc(-c3ccccc3)c(-c3ccccc3)nc2c1` [5h], the “% Growth inhibition at 20 μM” value in test [1], in test [2], in test [3], in test [4], in test [5] and in test [6] was “Inactive” each time. In addition, the “% Growth inhibition at 20 μM” value in test [7] is “Inactive”.

As for `Cc1ccc(S(=O)(=O)N(c2ccc3nc(-c4ccco4)c(-c4ccco4)nc3c2)S(=O)(=O)c2ccc(C)cc2)cc1` [5j], the “% Growth inhibition at 20 μM” value in test [1], in test [2], in test [3], in test [4], in test [5] and in test [6] was “Inactive” each time. For the same compound, the “% Growth inhibition at 20 μM” value in test [7] was “Inactive”.

`Cc1ccc(S(=O)(=O)N(c2ccc3nc(-c4cccs4)c(-c4cccs4)nc3c2)S(=O)(=O)c2ccc(C)cc2)cc1` [5k]: the “% Growth inhibition at 20 μM” value in test [1], in test [2], in test [3], in test [4], in test [5] and in test [6] was “Inactive” each time. Further, in test [7], the “% Growth inhibition at 20 μM” value is on record as “Inactive”.

Turning to `Cc1ccc(S(=O)(=O)Nc2ccc3nc(-c4ccccc4)c(-c4ccccc4)nc3c2)cc1` [5l], the “% Growth inhibition at 20 μM” value in test [1], in test [2], in test [3], in test [4], in test [5] and in test [6] was “Inactive” each time. For the same compound, the “% Growth inhibition at 20 μM” value in test [7] was “Inactive”.

As to `S=C(Nc1ccccc1)Nc1ccc2nc(-c3cccs3)c(-c3cccs3)nc2c1` [6b], the “% Growth inhibition at 20 μM” value in test [1], in test [2], in test [3], in test [4], in test [5] and in test [6] was “Inactive” in each case. Further, in test [7], the “% Growth inhibition at 20 μM” value is reported as “Inactive”.

Regarding `S=C(Nc1ccccc1)Nc1ccc2nc(-c3ccccc3)c(-c3ccccc3)nc2c1` [6c], the “% Growth inhibition at 20 μM” value in test [1], in test [2], in test [3], in test [4], in test [5] and in test [6] was “Inactive” each time. In addition, the “% Growth inhibition at 20 μM” value in test [7] was “Inactive”.

Regarding `O=[N+]([O-])c1ccc(NC(=S)Nc2ccc3nc(-c4cccs4)c(-c4cccs4)nc3c2)cc1` [6e], the “% Growth inhibition at 20 μM” value was 50.6 ± 3.9% in test [1]; “Inactive” in test [2]; 53.3 ± 7.2% in test [3]; 23.9 ± 27.8% in test [4]; “Inactive” in test [5]; 19.5 ± 37.4% in test [6]. Besides, in test [7], the “% Growth inhibition at 20 μM” value is “Inactive”.

For the compound `O=[N+]([O-])c1ccc(NC(=S)Nc2ccc3nc(-c4ccccc4)c(-c4ccccc4)nc3c2)cc1` [6f], the “% Growth inhibition at 20 μM” value stood at 76.1 ± 0.4% in test [1]; 16.6 ± 11.2% in test [2]; 72.6 ± 0.7% in test [3]; 81.2 ± 0.7% in test [4]; 55.5 ± 25.4% in test [5]; 81.0 ± 8.5% in test [6]. Moreover, the “% Growth inhibition at 20 μM” value in test [7] came to 55.8 ± 30.7%.

As for `Cc1nc2ccc(NC(=O)N3CCCC3)cc2nc1C` [6g], the “% Growth inhibition at 20 μM” value in test [1], in test [2], in test [3], in test [4], in test [5] and in test [6] was “Inactive” in each case. Moreover, the “% Growth inhibition at 20 μM” value in test [7] is reported as “Inactive”.

With `O=C(Nc1ccc2nc(-c3ccccc3)c(-c3ccccc3)nc2c1)N1CCCC1` [6i], the “% Growth inhibition at 20 μM” value in test [1] is on record as 54.2 ± 2.2%; in test [2], 11.0 ± 1.3%; in test [3], 16.7 ± 3.9%; in test [4] it was “Inactive”; in test [5] it was 29.4 ± 9.8%; in test [6], 56.9 ± 2.7%. For the same compound, the “% Growth inhibition at 20 μM” value in test [7] amounted to 18.5 ± 4.3%.

In the case of `Cc1nc2ccc(NC(=O)N3CCC(Cc4ccccc4)CC3)cc2nc1C` [6j], the “% Growth inhibition at 20 μM” value in test [1] was 33.5 ± 0.4%; in test [2], 40.3 ± 1.9%; in test [3] it was 12.4 ± 5.0%; in test [4] it was 16.3 ± 10.1%; in test [5], “Inactive”; in test [6], 30.6 ± 11.6%. Also, the “% Growth inhibition at 20 μM” value in test [7] turned out to be 8.9 ± 5.1%.

As for `Cc1nc2ccc(NC(=O)N3CCCCC3)cc2nc1C` [6l], the “% Growth inhibition at 20 μM” value in test [1], in test [2], in test [3], in test [4], in test [5] and in test [6] was “Inactive” throughout. Besides, the “% Growth inhibition at 20 μM” value in test [7] was “Inactive”.

In the case of `O=C(Nc1ccc(F)cc1)Nc1ccc2nc(-c3ccco3)c(-c3ccco3)nc2c1` [7a], the “% Growth inhibition at 20 μM” value in test [1] is given as 55.6 ± 6.6%; in test [2], >100%; in test [3], 38.4 ± 2.7%; in test [4], 74.2 ± 5.2%; in test [5], >100%; in test [6], 90.7 ± 4.1%. Also, the “% Growth inhibition at 20 μM” value in test [7] was “Inactive”.

Turning to `O=C(Nc1ccc(Cl)cc1)Nc1ccc2nc(-c3ccco3)c(-c3ccco3)nc2c1` [7b], the “% Growth inhibition at 20 μM” value in test [1] stood at 87.4 ± 1.1%; in test [2] it was 99.2 ± 5.2%; in test [3], 92.5 ± 6.6%; in test [4], 86.3 ± 7.7%; in test [5] it was 81.1 ± 2.0%; in test [6], 86.4 ± 1.1%. For the same compound, the “% Growth inhibition at 20 μM” value in test [7] came out at 55.8 ± 24.1%.
